In US20250282746A1, “HALOGEN-SUBSTITUTED ISOINDOLINE COMPOUND AND USE THEREOF” (CHENGDU FENDI PHARMACEUTICAL CO., LTD., priority 2022, published 2025) one finds inhibition and IC50 data, which are given here for 21 compounds.

Common to all, as to format: cell-based
The target in one test is T1, GSPT1 protein (Homo sapiens, UniProt P15170).
T1 construct: The whole cell lysate was prepared using a RIPA lysis buffer; endogenous in cells; host or cells: NB-4 cells
Description: Degradation of GSPT1 protein in NB-4 cells (Western blot). Particulars: read-out: GSPT1 degradation. In outline: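 NB-4 cells treated with compounds at 1 μM for 6 h at 37 °C, 5% CO2, with DMSO control. RIPA whole-cell lysates, BCA-normalized, were run on 4-20% SDS-PAGE and immunoblotted for GSPT1 protein.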

In another test the test system is NCI-H929 cells. Nature of the test: Antiproliferative activity against various tumor cells: NCI-H929. As to conditions: Homo sapiens; NCI-H929 cells, 72 h; read-out: Antiproliferative activity IC50 NCI-H929. The protocol: (§1) U937, NCI-H929, AML-2, and MOLM-13 cells in the logarithmic growth phase were diluted in media RPMI+10% FBS, RPMI+10% FBS, MEMα+20% FBS, RPMI+20% FBS, respectively, and plated at 4,000 cells/well in 96-well whole black plates (WHB) with 50 μL/well. After plating, the plates were incubated in an incubator at 5% CO2 and 37° C. for 24 h before the compounds were added. The compounds were prepared into a 10 mM stock solution in DMSO and diluted in a culture medium to the desired concentrations (a final DMSO concentration of 0.2%). […] The plates were incubated at 5% CO2 and 37° C. for 72 h. After the incubation was complete, the plates were equilibrated at room temperature for 30 min. CellTiter-Glo® Reagent (Promega G7573) was added at 100 μL/well. The plates were shaken for 12 min on a microplate shaker. The luminescence value was measured at room temperature by the GloMax navigator (Promega GM2010).

In a further test the test system is U937 cells. Nature of the test: Antiproliferative activity against various tumor cells: U937. As to conditions: Homo sapiens, U-937; U937 cells, 72 h; read-out: Antiproliferative activity IC50 U937. The protocol: as §1
The next test relates to MV-4-11 cells. Description: Antiproliferative activity against MV-4-11 cells (CellTiter-Glo, 72 h). Particulars: Homo sapiens, read-out: Antiproliferative activity IC50. In outline:
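MV-4-11 cells in RPMI + 10% FBS plated at 5,000 cells/well and pre-incubated 24 h at 37 °C, 5% CO2. Compounds were then added (final DMSO 0.2%) and cells incubated 72 h. Viability was read by CellTiter-Glo luminescence after 30 min equilibration at room temperature.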

The subject of another test is AML-2 cells. Nature of the test: Antiproliferative activity against various tumor cells: AML-2. Particulars: AML-2 cells, 72 h; read-out: Antiproliferative activity IC50 AML-2. The protocol: as §1
Another test deals with MOLM-13 cells. Nature of the test: Antiproliferative activity against various tumor cells: MOLM-13. As to conditions: Homo sapiens; MOLM-13 cells, 72 h; read-out: Antiproliferative activity IC50 MOLM-13. On the procedure:
as §1

Molecules are shown by their SMILES. Where two headings read alike, the source gives them in different places.

T1 sequence (P15170 whole entry): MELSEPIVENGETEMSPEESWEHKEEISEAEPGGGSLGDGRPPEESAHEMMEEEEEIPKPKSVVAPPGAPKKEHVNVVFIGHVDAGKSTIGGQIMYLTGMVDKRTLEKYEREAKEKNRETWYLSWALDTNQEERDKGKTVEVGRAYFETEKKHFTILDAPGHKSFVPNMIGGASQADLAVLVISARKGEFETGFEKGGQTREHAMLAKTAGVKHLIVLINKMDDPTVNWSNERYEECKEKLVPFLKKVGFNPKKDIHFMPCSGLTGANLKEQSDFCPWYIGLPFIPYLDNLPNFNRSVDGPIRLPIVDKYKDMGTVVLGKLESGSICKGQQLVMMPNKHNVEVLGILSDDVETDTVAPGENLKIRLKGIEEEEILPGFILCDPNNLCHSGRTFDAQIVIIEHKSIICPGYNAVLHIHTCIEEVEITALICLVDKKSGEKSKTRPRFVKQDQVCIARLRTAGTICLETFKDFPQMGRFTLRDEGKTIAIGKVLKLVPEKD

Take `Cc1cc(C(=O)NCc2ccc3c(c2F)CN(C2CCC(=O)NC2=O)C3=O)cc(C)c1C` (centres unmarked) [FDAB-92]: the inhibition at 1 µM on GSPT1 protein (NB-4 cells, compound 1 μM, 6 h) is > 80%. In addition, the IC50 (usually the concentration at which inhibition is half-maximal) was in the range of 10 to 100 nM in the test on NCI-H929 cells; 1 to 10 nM in the test with U937 cells; 1 to 10 nM in the test on MV-4-11 cells (MV4-11, MV-4-11 cells, 72 h); 1 to 10 nM in the test on AML-2 cells; 1 to 10 nM in the test with MOLM-13 cells.
As to `O=C(C#Cc1ccccc1)NCc1ccc2c(c1F)CN(C1CCC(=O)NC1=O)C2=O` (centres unmarked) [FDAB-144], the inhibition at 1 µM at GSPT1 protein (NB-4 cells, compound 1 μM, 6 h) is > 80%. In addition, the IC50 with NCI-H929 cells is < 1 nM; in the test with U937 cells, 1 to 10 nM; in the test on MV-4-11 cells (MV4-11, MV-4-11 cells, 72 h), < 1 nM; with AML-2 cells, 1 to 10 nM; with MOLM-13 cells, < 1 nM.
`Cc1nc2cc(C(=O)NCc3cc4c(cc3F)C(=O)N(C3CCC(=O)NC3=O)C4)ccc2s1` (centres unmarked) [FDAB-58]: the inhibition at 1 µM at GSPT1 protein (NB-4 cells, compound 1 μM, 6 h) is > 80%. Further, in the test on MV-4-11 cells (MV4-11, MV-4-11 cells, 72 h), the IC50 was 10 to 100 nM.
As for `O=C1CCC(N2Cc3c(ccc(CNC(=O)c4ccc(Cl)cc4Cl)c3F)C2=O)C(=O)N1` (centres unmarked) [FDAB-50], on GSPT1 protein (NB-4 cells, compound 1 μM, 6 h), the inhibition at 1 µM was > 80%. Further, the IC50 in the test on MV-4-11 cells (MV4-11, MV-4-11 cells, 72 h) is 1 to 10 nM.
The matching figures for `COc1cccc(C(=O)NCc2cc3c(cc2F)C(=O)N(C2CCC(=O)NC2=O)C3)c1` (centres unmarked) [FDAB-37]: 50 to 80% and 10 to 100 nM.
The matching figures for `C=Cc1ccc(C(=O)NCc2ccc3c(c2F)CN(C2CCC(=O)NC2=O)C3=O)cc1` (centres unmarked) [FDAB-95]: > 80% and 1 to 10 nM.
The matching figures for `CC(=O)c1ccc(C(=O)NCc2ccc3c(c2F)CN(C2CCC(=O)NC2=O)C3=O)cc1` (centres unmarked) [FDAB-99]: 50 to 80% and 10 to 100 nM.
Consider `O=C1CCC(N2Cc3c(ccc(CNC(=O)c4ccc5ccccc5n4)c3F)C2=O)C(=O)N1` (centres unmarked) [FDAB-66], for which the inhibition at 1 µM on GSPT1 protein (NB-4 cells, compound 1 μM, 6 h) was > 80%. Also, the IC50 in the test with MV-4-11 cells (MV4-11, MV-4-11 cells, 72 h) was in the range of 10 to 100 nM.
The corresponding values for `O=C1CCC(N2Cc3cc(CNC(=O)c4cc5ccccc5o4)cc(F)c3C2=O)C(=O)N1` (centres unmarked) [FDAB-21] are < 25% and > 1000 nM.
The matching figures for `Cc1ccc(C(=O)NCc2ccc3c(c2F)CN(C2CCC(=O)NC2=O)C3=O)c(O)c1` (centres unmarked) [FDAB-109]: > 80% and 1 to 10 nM.
The matching figures for `O=C1CCC(N2Cc3c(ccc(CNC(=O)C4(c5ccc(Br)cc5F)CC4)c3F)C2=O)C(=O)N1` (centres unmarked) [FDAB-141]: < 25% and > 1000 nM.
In the case of `CCCOc1ccc(/C=C/C(=O)NCc2ccc3c(c2F)CN(C2CCC(=O)NC2=O)C3=O)cc1` (centres unmarked) [FDAB-143], the inhibition at 1 µM on GSPT1 protein (NB-4 cells, compound 1 μM, 6 h) is > 80%. Besides, the IC50 in the test on MV-4-11 cells (MV4-11, MV-4-11 cells, 72 h) is < 1 nM.
Regarding `[2H]c1c([2H])c(C(=O)NCc2ccc3c(c2F)CN(C2CCC(=O)NC2=O)C3=O)c([2H])c([2H])c1Cl` (centres unmarked) [FDAB-18], the inhibition at 1 µM at GSPT1 protein (NB-4, 6 h) is > 80%. For the same compound, in the test with MV-4-11 cells (MV4-11, 72 h), the IC50 was in the range of 10 to 100 nM.
Consider `O=C1CCC(N2Cc3c(ccc(CNC(=O)c4cc5cc(Cl)ccc5o4)c3F)C2=O)C(=O)N1` (centres unmarked) [FDAB-47], for which the inhibition at 1 µM on GSPT1 protein (NB-4 cells, compound 1 μM, 6 h) was > 80%. The half-maximal inhibitory concentration (IC50) in the test on MV-4-11 cells (MV4-11, MV-4-11 cells, 72 h) lay within 1 to 10 nM.
The corresponding values for `O=C1CCC(N2Cc3cc(CNC(=O)c4cc5cc(F)ccc5o4)c(F)cc3C2=O)C(=O)N1` (centres unmarked) [FDAB-35] are 50 to 80% and 10 to 100 nM.
The corresponding values for `COc1ccc(C(=O)NCc2ccc3c(c2F)CN(C2CCC(=O)NC2=O)C3=O)cc1OC` (centres unmarked) [FDAB-102] are < 25% and > 1000 nM.
As to `O=C(CCP(c1ccccc1)c1ccccc1)NCc1ccc2c(c1F)CN(C1CCC(=O)NC1=O)C2=O` (centres unmarked) [FDAB-160], the inhibition at 1 µM at GSPT1 protein (NB-4 cells, compound 1 μM, 6 h) is > 80%. Further, the IC50 in the test with MV-4-11 cells (MV4-11, MV-4-11 cells, 72 h) is < 1 nM.
The matching figures for `CCN1C(=O)CCC(N2Cc3c(ccc(CNC(=O)c4ccc(Cl)cc4)c3F)C2=O)C1=O` (centres unmarked) [FDAB-125]: < 25% and > 1000 nM.
Turning to `O=C(C#Cc1cccc(O)c1)NCc1ccc2c(c1F)CN(C1CCC(=O)NC1=O)C2=O` (centres unmarked) [FDAB-146], the inhibition at 1 µM on GSPT1 protein (NB-4 cells, compound 1 μM, 6 h) is > 80%. Moreover, in the test on MV-4-11 cells (MV4-11, MV-4-11 cells, 72 h), the IC50 is < 1 nM.
Regarding `CC(C)OC(=O)N1C(=O)CCC(N2Cc3c(ccc(CNC(=O)c4ccc(Cl)cc4)c3F)C2=O)C1=O` (centres unmarked) [FDAB-127], the inhibition at 1 µM at GSPT1 protein (NB-4 cells, compound 1 μM, 6 h) was < 25%. The IC50 in the test on MV-4-11 cells (MV4-11, MV-4-11 cells, 72 h) was > 1000 nM.
The corresponding values for `COc1cc(C)c(/C=C/C(C)=C/C=C/C(C)=C/C(=O)NCc2ccc3c(c2F)CN(C2CCC(=O)NC2=O)C3=O)c(C)c1C` (centres unmarked) [FDAB-162] are > 80% and < 1 nM.
